Test results as given in patent EP0201988A2, “Dihydropyridazinone derivatives” (SMITH KLINE & FRENCH LABORATORIES LIMITED, priority 1985, dated 1986).

How the values were obtained:
PDE (Peak III) = assay: Inhibition of phosphodiesterases, PDE (Peak III) enzyme assay; assay type: biochemical; conditions: PDE (Peak III) from cat heart, 1 µM cyclic AMP
Experimental: Sepharose is a registered trademark of Pharmacia Fine Chemicals Inc. The high-speed supernatant from a cat heart homogenate (2 g tissue in 20 ml 20 mM PiPES - (Piperazine-N-N'-bis[2-ethanesulfonic acid]), 50 mM Na acetate, pH 6.5) was applied to a 15 ^x 1.5 cm column of DEAE-Sepharose equilibrated with the homogenisation buffer. The PDE activities were eluted with a gradient of 0.05-1 M Na acetate in 20 mM PIPES.
The enzyme was assayed by incubation at 37° for 4-30 min in 50 mM Tris, 5 mM MgCl2, pH 7.5 with [3-H] cyclic nucleotide (4 ^x 10^5 disintegrations min-') and [14-C] nucleotide 5' monophosphate (3 ^x 10^3 disintegrations min^-1). The assay was stopped by boiling, and the [3-H] […] The reaction mixture was diluted with 0.5 ml 100 mM HEPES (N-2-Hydroxyethylpiperazine-N'-2-ethanesulfonic acid), 100 mM NaCl, pH 8.5, and applied to the column. The column was extensively washed with the same buffer, and the 5' nucleotide eluted with 6 ml 025 M acetic acid.

anaesthetised cats = assay: Cardiac stimulant activity in vivo (anaesthetised cats); conditions: anaesthetised cats pretreated with pempidine and propranolol, administered intravenously; for ED50: Felis catus, iv, read-out: ED50 (dose to increase left ventricular dp/dt max by 50%)
ventricular strips = assay: Cardiac stimulant activity in vitro (electrically stimulated ventricular strips); assay type: cell-based, Guinea pigs; conditions: Cavia porcellus; guinea pig right ventricle strips, stimulated at 1.0 Hz, Krebs Henseleit solution at 37°C, concentration in the bathing fluid; read-out: EC50 (50% increase in the force of contraction of the ventricular strips)
Experimental: The compounds of formula (I) and their pharmaceutically acceptable salts are tested for cardiac stimulant activity following a procedure based on that of S.C. Verma and J. H. McNeill (J.Pharm & Exp. Therapeutics, 200, 352-362 (1977)). Guinea pigs (500-700 g) of either sex are sacrificed and the hearts are quickly removed and transferred to a dissecting dish containing oxygenated bathing fluid. While in the bathing medium, the right ventricle is cut into two strips. The strips are each suspended in a 50 ml bath containing Krebs Henseleit solution at 37°C, and the bath is bubbled with 95% oxygen and 5% carbon dioxide. The ventricular strips are electrically stimulated at a frequency of 1.0 Hz, at double the threshold voltage. A resting tension of 1.0 g is applied to the strips and the tension is kept constant by readjustment during an equilibration period of 60 minutes. The bathing fluid is frequently changed during this period. When a steady base line is obtained, a compound under test is added to the bathing fluid and a cumulative concentration response curve is plotted.

Row | EC50 (ventricular strips) [µM] | SMILES | IC50 (PDE (Peak III)) [µM] | ED50 (anaesthetised cats) [µmol/kg] | duration of activity (anaesthetised cats)
1 |  | Cc1[nH]c(=O)c(C#N)cc1-c1ccncc1 (single isomer, unassigned) [Milrinone] | 2.2 |  | 
2 |  | Nc1cc(-c2ccncc2)c[nH]c1=O [Amrinone] | 51.8 | 5.6 | short duration of activity
3 | 14 | CC1CC(=O)NN=C1c1ccc(NC2=NC(=O)CN2)cc1 (centres unmarked) [Example 1, 6-[4-(4-Oxo-2-imidazolin-2-ylamino)phenyl]-5-methyl-4,5-dihydro-3(2H)-pyridazinone] | 1.84 | 0.4 | long duration of activity
